Peptide text beside a SMILES is read from it. * marks the point of attachment. X65 = O=C1C=CC(=O)N1c1cccc(CCCCCCCCCCCCC(=O)*)c1; X58 = O=C1C=CC(=O)N1c1cccc(CCCCCCCCCCCC(=O)*)c1
Experiments:
splenic lymphocytes = assay: Proliferation of splenic lymphocytes in mice (ConA, MTT); type: cell-based; conditions: ConA-stimulated mouse splenic lymphocytes, 48 h
Summary of the method: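 Mouse splenocytes (5×10^6 cells/mL, RPMI 1640 with 10% calf serum, red cells lysed) stimulated with ConA plus varying polypeptide concentrations, with blank, ConA-only and Dex groups, 48 h at 37° C. MTT added for 4 h, formazan dissolved in DMSO, OD read at 570 nm; five replicates.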

[1] = tested on: IL-1β production by mouse peritoneal macrophages; assay: IL-1β production by mouse peritoneal macrophages (ELISA); type: cell-based; conditions: for Inhibition rate: IL-1β production, vs model group; for IL-1β: mouse peritoneal macrophages, 48 h, ELISA
Summary of the method: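 Starch-elicited (6%, i.p.) mouse peritoneal macrophages, 2×10^6 cells/mL in RPMI 1640, adhered 3 h; non-adherent cells washed off. Polypeptides added at low, medium and high concentrations, Dex as positive control; cultured 48 h, supernatant IL-1β measured.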

adjuvant arthritis = assay: Rat adjuvant arthritis (AA) animal model; type: in vivo, SD rats; conditions: 4.0 mg/kg; for Clinical score: intravenous in the tail once every five days from day 10, four paws scored 0-4, max 16, mean±SD; for Joint swelling degree / Left and right paw swelling degree: intravenous in the tail once every five days from day 10, mean±SD
[2] = tested on: carrageenan-induced toe swelling; assay: Carrageenan-induced toe swelling in rats; type: in vivo; conditions: SD rats; for Swelling degree 1 h: 1 h after carrageenan; for Swelling degree 3 h: 3 h after carrageenan; for Swelling degree 5 h: 5 h after carrageenan; for Swelling degree 7 h: 7 h after carrageenan
Summary of the method: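 Rats dosed by injection once daily for 3 d, controls given equal-volume saline. Right hind paw volume measured by water displacement to a marked joint line; swelling degree (mL) is paw volume after carrageenan inflammation minus volume before.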

[3] = tested on: retinal vascular endothelial nuclei; assay: Neovascularization in a rat model of premature retinopathy; type: in vivo, rats; conditions: dose 0.05 μM in the vitreous chamber from day 7 of modeling for one week; counted on day 14; oxygen-induced neonatal rats
Summary of the method: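 Newborn rats kept 7 d in chamber alternating 80% and 10% O2 every 24 h (23 °C), then room air. Intravitreal injection of test agents on day 7, saline for model and control; eyes taken day 14, HE-stained 4 μm sections. Endothelial nuclei breaching retinal inner limiting membrane counted, averaged per section per eye (10 sections).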

C[C@H](NC(=O)CNC(=O)[C@H](CCCNC(=N)N)NC(=O)CCCCCCCCCCCc1cccc(N2C(=O)C=CC2=O)c1)C(=O)N[C@@H](CC(=O)O)C(=O)N[C@@H](CCCNC(=N)N)C(=O)N[C@@H](C)C(=O)NCC(=O)NCC(=O)NCC(=O)NCC(=O)N[C@@H](CCCNC(=N)N)C(=O)NCC(=O)N[C@@H](CC(=O)O)C(=O)O [X35] (X58-RGADRAGGGGRGD-OH)
A570 nm/A630 nm (splenic lymphocytes; polypeptide dose 0.05 μM): 0.6122 ± 0.1219
Inhibition rate (%) (splenic lymphocytes; polypeptide dose 0.05 μM): 9.36%
A570 nm/A630 nm (splenic lymphocytes; polypeptide dose 0.1 μM): 0.5261 ± 0.0617
Inhibition rate (%) (splenic lymphocytes; polypeptide dose 0.1 μM): 22.11%
A570 nm/A630 nm (splenic lymphocytes; polypeptide dose 0.2 μM): 0.4415 ± 0.0616
Inhibition rate (%) (splenic lymphocytes; polypeptide dose 0.2 μM): 34.63%
Inhibition rate ([1]; dose 0.05 μM): 23.62%
IL-1β ([1]; dose 0.05 μM): 718.81 ± 11.53 pg/mL
Inhibition rate ([1]; dose 0.1 μM): 30.79%
IL-1β ([1]; dose 0.1 μM): 651.42 ± 15.51 pg/mL
Inhibition rate ([1]; dose 0.2 μM): 34.61%
IL-1β ([1]; dose 0.2 μM): 615.43 ± 17.18 pg/mL
Clinical score (adjuvant arthritis): 5.83 ± 1.07
Joint swelling degree (adjuvant arthritis): 0.85 ± 0.13 mm
Left and right paw swelling degree (adjuvant arthritis): 3.78 ± 0.56 mm
Swelling degree 1 h ([2]; 2.0 mg/kg once a day for 3 d): 0.25 ± 0.11 mg
Swelling degree 3 h ([2]; 2.0 mg/kg once a day for 3 d): 0.38 ± 0.16 mg
Swelling degree 5 h ([2]; 2.0 mg/kg once a day for 3 d): 0.38 ± 0.19 mg
Swelling degree 7 h ([2]; 2.0 mg/kg once a day for 3 d): 0.33 ± 0.15 mg
Swelling degree 1 h ([2]; 4.0 mg/kg once a day for 3 d): 0.23 ± 0.11 mg
Swelling degree 3 h ([2]; 4.0 mg/kg once a day for 3 d): 0.36 ± 0.16 mg
Swelling degree 5 h ([2]; 4.0 mg/kg once a day for 3 d): 0.44 ± 0.14 mg
Swelling degree 7 h ([2]; 4.0 mg/kg once a day for 3 d): 0.32 ± 0.12 mg
Nuclei count (retinal vascular endothelial nuclei, average per section per eyeball) [3]: 8.544 ± 3.087

C[C@H](NC(=O)CNC(=O)[C@H](CCCNC(=N)N)NC(=O)CCCCCCCCCCCCc1cccc(N2C(=O)C=CC2=O)c1)C(=O)N[C@@H](CC(=O)O)C(=O)N[C@@H](CCCNC(=N)N)C(=O)N[C@@H](C)C(=O)NCC(=O)NCC(=O)NCC(=O)NCC(=O)N[C@@H](CCCNC(=N)N)C(=O)NCC(=O)N[C@@H](CC(=O)O)C(=O)O [X36] (X65-RGADRAGGGGRGD-OH)
A570 nm/A630 nm (splenic lymphocytes; polypeptide dose 0.05 μM): 0.6051 ± 0.0633
Inhibition rate (%) (splenic lymphocytes; polypeptide dose 0.05 μM): 10.41%
A570 nm/A630 nm (splenic lymphocytes; polypeptide dose 0.1 μM): 0.4566 ± 0.1223
Inhibition rate (%) (splenic lymphocytes; polypeptide dose 0.1 μM): 32.40%
A570 nm/A630 nm (splenic lymphocytes; polypeptide dose 0.2 μM): 0.4401 ± 0.051
Inhibition rate (%) (splenic lymphocytes; polypeptide dose 0.2 μM): 34.84%
Inhibition rate ([1]; dose 0.05 μM): 17.18%
IL-1β ([1]; dose 0.05 μM): 779.49 ± 11.56 pg/mL
Inhibition rate ([1]; dose 0.1 μM): 34.09%
IL-1β ([1]; dose 0.1 μM): 620.34 ± 15.26 pg/mL
Inhibition rate ([1]; dose 0.2 μM): 34.16%
IL-1β ([1]; dose 0.2 μM): 619.62 ± 11.89 pg/mL
Clinical score (adjuvant arthritis): 5.71 ± 1.09
Joint swelling degree (adjuvant arthritis): 0.81 ± 0.12 mm
Left and right paw swelling degree (adjuvant arthritis): 4.00 ± 0.44 mm
Swelling degree 1 h ([2]; 2.0 mg/kg once a day for 3 d): 0.29 ± 0.17 mg
Swelling degree 3 h ([2]; 2.0 mg/kg once a day for 3 d): 0.34 ± 0.18 mg
Swelling degree 5 h ([2]; 2.0 mg/kg once a day for 3 d): 0.43 ± 0.13 mg
Swelling degree 7 h ([2]; 2.0 mg/kg once a day for 3 d): 0.32 ± 0.15 mg
Swelling degree 1 h ([2]; 4.0 mg/kg once a day for 3 d): 0.23 ± 0.15 mg
Swelling degree 3 h ([2]; 4.0 mg/kg once a day for 3 d): 0.33 ± 0.13 mg
Swelling degree 5 h ([2]; 4.0 mg/kg once a day for 3 d): 0.35 ± 0.12 mg
Swelling degree 7 h ([2]; 4.0 mg/kg once a day for 3 d): 0.32 ± 0.17 mg
Nuclei count (retinal vascular endothelial nuclei, average per section per eyeball) [3]: 8.726 ± 3.273

Reference: patent US20200270309A1, “MALEIMIDE GROUP-MODIFIED ANGIOGENESIS INHIBITOR HM-1 AND USE THEREOF” (NANJING ANJI BIOLOGICAL TECHNOLOGY CO., LTD, priority 2017, published 2020)
